Among the data in ChEMBL document CHEMBL1221257, “Hit-to-lead optimization of a series of carboxamides of ethyl 2-amino-4-phenylthiazole-5-carboxylates as novel adenosine A2A receptor antagonists” (Bioorg Med Chem Lett, 2010) are Ki, Activity and ED50 values, retold here.

SMILES strings stand for the structures. Where only a bound is given, the exact number is not on record here.

As usually defined, the Ki is the equilibrium dissociation constant of an inhibitor or competing ligand from its target. A high value points to lower affinity. For orientation: ED50 means the dose at which the effect has come halfway, by size or by number of responders.

For one assay, the target named is T1, Adenosine receptor A1 (Homo sapiens, UniProt P30542).
T1 sequence (P30542 whole entry): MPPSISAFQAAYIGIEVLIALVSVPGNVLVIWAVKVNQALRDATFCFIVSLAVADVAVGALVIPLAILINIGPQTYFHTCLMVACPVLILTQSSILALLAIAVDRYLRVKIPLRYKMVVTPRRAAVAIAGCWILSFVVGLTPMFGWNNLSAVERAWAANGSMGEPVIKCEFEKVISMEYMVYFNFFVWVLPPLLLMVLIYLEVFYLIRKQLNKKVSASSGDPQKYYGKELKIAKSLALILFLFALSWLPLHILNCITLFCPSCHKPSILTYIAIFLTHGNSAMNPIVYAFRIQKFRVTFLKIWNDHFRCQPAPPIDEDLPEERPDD
As to the kind of experiment: Displacement of [3H]DPCPX from human adenosine A1 receptor expressed in CHO cells by liquid scintillation counting. It is filed as cell-based. Background: Loss of bound radioactivity is the signal in a displacement assay; it reports binding, not function.

In assay [1] the target is T2, Adenosine receptor A2a (Homo sapiens, UniProt P29274).
Description: Displacement of [3H]ZM241385 from human adenosine A2A receptor expressed in buculovirus system by liquid scintillation counting
Assay [2] addresses T2, Adenosine receptor A2a. As to the kind of experiment: Displacement of [3H]ZM241385 from human adenosine A2A receptor expressed in buculovirus system at 10 uM by liquid scintillation counting.
For assay [3], the target named is T3, Adenosine receptor A1 (Homo sapiens) (UniProt P30542).
T3 sequence (whole entry): T1 sequence (P30542 whole entry)
The assay can be described thus: Displacement of [3H]DPCPX from human adenosine A1 receptor expressed in CHO cells at 2000 nM by liquid scintillation counting. The class given is cell-based.

Assay [4] relates to Mus musculus. As to the kind of experiment: Reversal of haloperidol-induced hypolocomotion in po dosed NMRI mouse model of Parkinson's disease measured for 20 mins. The class given is functional.
Assay [5] has as its target T3, Adenosine receptor A1 (Homo sapiens). The assay can be described thus: Displacement of [3H]DPCPX from human adenosine A1 receptor expressed in CHO cells at 10 uM by liquid scintillation counting. The class given is cell-based.
The subject of assay [6] is Mus musculus. As to the kind of experiment: In-vivo displacement of [3H]SCH442416 from adenosine A2A receptor in po dosed NMRI mouse by liquid scintillation counting. It is filed as functional.

T2 sequence (P29274 whole entry): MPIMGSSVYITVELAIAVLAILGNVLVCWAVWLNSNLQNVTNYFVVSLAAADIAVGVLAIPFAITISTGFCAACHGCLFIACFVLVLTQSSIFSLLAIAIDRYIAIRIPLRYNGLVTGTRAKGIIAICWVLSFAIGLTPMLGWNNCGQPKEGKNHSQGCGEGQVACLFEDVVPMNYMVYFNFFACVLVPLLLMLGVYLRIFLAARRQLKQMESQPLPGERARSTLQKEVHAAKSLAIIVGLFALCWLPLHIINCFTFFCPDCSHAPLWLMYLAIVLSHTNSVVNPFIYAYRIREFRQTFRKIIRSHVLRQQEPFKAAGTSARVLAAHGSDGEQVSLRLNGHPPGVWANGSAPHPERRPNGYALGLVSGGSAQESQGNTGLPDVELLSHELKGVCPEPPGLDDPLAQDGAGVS

In the case of `CCOCc1sc(NC(=O)c2ccco2)nc1-c1ccccc1`, the values for the Ki on Adenosine receptor A1 and at Adenosine receptor A2a [1] were 92 nM and 190 nM, respectively.
With `O=C(Nc1nc(-c2ccccc2)c(C(=O)O)s1)c1ccco1`, the Activity at Adenosine receptor A2a [2] turned out to be 0%.
In the case of `CCOC(=O)c1sc(NC(=O)c2ccco2)nc1-c1ccccc1`, the inhibitory constant (Ki) at Adenosine receptor A1 was determined as 95 nM; on Adenosine receptor A2a [1], 13 nM.
The like results for `O=C(Nc1nc(-c2ccccc2)c(-c2ncon2)s1)c1ccco1` were, in that order, 230 nM and 410 nM.
With `CCn1nnc(-c2sc(NC(=O)Cc3ccc(OC)c(OC)c3)nc2-c2ccccc2)n1`, the inhibition constant (Ki) at Adenosine receptor A1 worked out at 1600 nM; on Adenosine receptor A2a [1] it was 45 nM.
The like results for `Cc1noc(-c2sc(NC(=O)c3ccccc3)nc2-c2ccccc2)n1` were, in that order, 180 nM and 190 nM.
The like results for `CC(=O)Nc1nc(-c2ccccc2)c(-c2nc(C)no2)s1` were, in that order, 370 nM and 110 nM.
`COCCOc1ccc(N2CCN(CCn3ncc4c3nc(N)n3nc(-c5ccco5)nc43)CC2)cc1` [PRELADENANT]: the Ki is above 1000 nM at Adenosine receptor A1 and 5 nM on Adenosine receptor A2a [1]. In assay [3], this compound showed an Activity of 30%. Also, the ED50 with Mus musculus [4] worked out at 0.4 mg/kg.
Regarding `Cc1nc(-c2sc(NC(=O)c3ccccc3)nc2-c2ccccc2)no1`, in assay [5], the Activity turned out to be 45%. This compound also had a Ki on Adenosine receptor A2a [1] of 83 nM.
At Adenosine receptor A2a [1], `N#Cc1sc(NC(=O)c2ccco2)nc1-c1ccccc1` came in with a Ki of 290 nM.
With `CCn1c(=O)c2c(nc(/C=C/c3ccc(OC)c(OC)c3)n2C)n(CC)c1=O` [ISTRADEFYLLINE], at Adenosine receptor A1, affinity was put at a Ki of 3000 nM. Also, the ED50 in the assay on Mus musculus [4] came out at 0.13 mg/kg.
As for `CCS(=O)(=O)c1sc(NC(=O)c2ccco2)nc1-c1ccccc1`, the Activity at Adenosine receptor A2a [2] worked out at 25%.
On to `Cc1nc(-c2sc(NC(=O)c3ccco3)nc2-c2ccccc2)no1`, for which the Ki on Adenosine receptor A1 was determined as 780 nM; on Adenosine receptor A2a [1], 700 nM.
In the case of `Cc1noc(-c2sc(NC(=O)c3ccco3)nc2-c2ccccc2)n1`, the Ki at Adenosine receptor A1 came to 270 nM; on Adenosine receptor A2a [1], 200 nM.
Take `Cc1nc(-c2sc(NC(=O)CC(C)C)nc2-c2ccccc2)no1`: the inhibition constant (Ki) at Adenosine receptor A1 was 82 nM; on Adenosine receptor A2a [1] it was 33 nM.
The like results for `O=C(Nc1nc(-c2ccccc2)c(-c2ncon2)s1)C1CC1` were, in that order, 310 nM and 120 nM.
`O=C(Nc1nc(-c2ccccc2)c(-c2ncon2)s1)c1ccccc1`: the Ki on Adenosine receptor A1 came out at 300 nM; on Adenosine receptor A2a [1], 330 nM.
The like results for `CCn1nnc(-c2sc(NC(=O)Cc3ccccc3)nc2-c2ccccc2)n1` were, in that order, 1200 nM and 460 nM.
For `CC(C)CC(=O)Nc1nc(-c2ccccc2)c(-c2ncon2)s1`, the figures for the Ki at Adenosine receptor A1 and on Adenosine receptor A2a [1] were 77 nM and 340 nM, respectively.
Consider `Cc1noc(-c2sc(NC(=O)CC(C)C)nc2-c2ccccc2)n1`, for which the results for the inhibition constant Ki on Adenosine receptor A1 and at Adenosine receptor A2a [1] were 27 nM and 48 nM, respectively.
In the case of `CCn1nnc(-c2sc(NC(=O)c3ccccc3)nc2-c2ccccc2)n1`, in assay [5], the Activity came out at 65%. Also, the Ki on Adenosine receptor A2a [1] turned out to be 220 nM.
On to `O=C(Cc1ccccc1)Nc1nc(-c2ccccc2)c(-c2ncon2)s1`, for which the Ki at Adenosine receptor A1 was found to be 1700 nM; at Adenosine receptor A2a [1], 710 nM.
On to `Cc1nc(-c2sc(NC(=O)C3CC3)nc2-c2ccccc2)no1`, for which the Ki at Adenosine receptor A1 worked out at 150 nM; at Adenosine receptor A2a [1], 28 nM. In addition, the Activity result in the assay with Mus musculus [4] is “Dose-dependent effect”. In addition, the values for the ED50 in the assay on Mus musculus [4] and with Mus musculus [6] were 7 mg/kg and 5.8 mg/kg, respectively.
As for `CCn1nnc(-c2sc(NC(=O)C3CC3)nc2-c2ccccc2)n1`, the figures for the inhibition constant Ki on Adenosine receptor A1 and at Adenosine receptor A2a [1] were 210 nM and 77 nM, respectively.
The like results for `Cc1noc(-c2sc(NC(=O)C3CC3)nc2-c2ccccc2)n1` were, in that order, 41 nM and 12 nM.
The like results for `Cc1nc(-c2sc(NC(=O)Cc3ccccc3)nc2-c2ccccc2)no1` were, in that order, 260 nM and 25 nM.
With `CCNC(=O)c1sc(NC(=O)c2ccco2)nc1-c1ccccc1`, the Activity at Adenosine receptor A2a [2] was 37%.
Take `Cc1noc(-c2sc(NC(=O)Cc3ccccc3)nc2-c2ccccc2)n1`: the Ki on Adenosine receptor A1 was 340 nM; on Adenosine receptor A2a [1], 57 nM.
The like results for `CCn1nnc(-c2sc(NC(=O)c3ccco3)nc2-c2ccccc2)n1` were, in that order, 650 nM and 94 nM.
Taken in the same sequence, the figures for `CCCC(=O)c1sc(NC(=O)c2ccco2)nc1-c1ccccc1` were 90 nM and 62 nM.
For the compound `CC(=O)Nc1nc(-c2ccccc2)c(-c2noc(C)n2)s1`, the Activity in assay [5] stood at 76%. This compound also registered a Ki at Adenosine receptor A2a [1] of 190 nM.
